This note sets out measurements from patent US8940717B2, “Plant disease controlling composition and method for controlling plant disease” (Sumitomo Chemical Company, Limited, priority 2010, dated 2015).

For the first assay, the system named is gray mold fungus (Botrytis cinerea). The assay can be described thus: Cucumber leaf disk preventive test against gray mold. In kind it is in vivo. The conditions noted are these: Botrytis cinerea, foliar, 96 h, read-out: preventive value (%). Here is the method:
To a SUS beaker are added 30 parts of the present compound (racemate), 5 parts of Soprophor FLK (polyoxyethylene tristyrylphenyl ether phosphate, produced by Rhodia Nicca Ltd.), 65 parts of ion-exchange water and 150 parts of glass beads (1.0 mm diameter). The mixture is subjected to grinding at a velocity of 1000 rpm with cooling to 10° C., and thereafter the glass beads are separated, so as to obtain a flowable formulation comprising the present compound (racemate).
True leaf of cucumber is punched out with cork borer to 13 mm in diameter to prepare a leaf disk. In 24 well microwell plate that is dispensed with 1 ml 0.8% water agar, the leaf disk is placed such that the upper side of the leaf is in an upward direction. Thereto is added 20 micro liter a testing solution prepared by mixing the flowable formulation of the present compound (racemate) prepared by the above procedure and a commercial wettable powder of fludioxonil or chlorothalonil to a predetermined concentration to treat the leaf disk.
After confirming that the testing medical solution is dried, conidium of gray mold fungus (Botrytis cinerea) is suspended into potato dextrose broth (DIFCO) in a density of about 10^5 conidium/mL and is then subjected to a spray inoculation. After leaving to stand the leaf disk in a growth chamber set up at 15° C. for four days, an onset area on the leaf is measured and then calculated an onset area rate (hereinafter, referred to as an onset area rate of treated group).
The same operation is carried out with 20 micro liter water instead of 20 micro liter a testing medicine solution to calculate an onset area rate (hereinafter, referred to an onset area rate of non-treated group).
A preventive value is calculated from the above onset area rate of treated group and the onset area rate of non-treated group by the following equation: Preventive value (%)=100×(A−B)/A
A: an onset area rate of treated group
B: an onset area rate of non-treated group
The same operations as described in Test Example 1 are carried out with cyflufenamid, diethofencarb, dithianon, fluazinam, flusulfamide, fosetyl-Al, metrafenon, penflufen, phthalide, sedaxane, spiroxamine or tebufloquin, instead of fludioxonil or chlorothalonil, so as to calculate respective preventive values.
Also for comparison, the same operations as described in Test Example 1 are carried out with the exception that the testing medicine solution is substituted with a predetermined concentration of each dimethyl sulfoxide solution of the present compound (racemate), cyflufenamid, diethofencarb, dithianon, fluazinam, flusulfamide, fosetyl-Al, metrafenon, penflufen, phthalide, sedaxane, spiroxamine or tebufloquin, so as to calculate respective preventive values.
For comparison, the same operations as described in Test Example 1 are carried out with the exception that the testing medicine solution is substituted with a predetermined concentration of each dimethyl sulfoxide solution of fludioxonil or chlorothalonil, so as to calculate a preventive value.
For the compound `N#Cc1c[nH]cc1-c1cccc2c1OC(F)(F)O2` [fludioxonil], the pest or weed control at 0.5 ppm amounted to 45% and the pest or weed control at 5 ppm was determined as 57%.

For `O=[N+]([O-])c1ccc(NS(=O)(=O)c2ccc(Cl)c(C(F)(F)F)c2)c(Cl)c1` [flusulfamide], the pest or weed control at 0.5 ppm turned out to be 15% and the pest or weed control at 5 ppm was found to be 20%.

Staying with this assay, now noted: Botrytis cinerea, foliar, 96 h; partner fungicide alone 0.5 ppm, dimethyl sulfoxide solution; cucumber leaf disk, 15° C., four days; read-out: preventive value (%).
For `N#Cc1c(Cl)c(Cl)c(Cl)c(C#N)c1Cl` [chlorothalonil], the pest or weed control at 0.5 ppm stood at 15%.

As for `O=C(Cc1ccccc1)N/C(=N\OCC1CC1)c1c(C(F)(F)F)ccc(F)c1F` [cyflufenamid], the pest or weed control at 0.5 ppm is 10%.

For the compound `CCOc1ccc(NC(=O)OC(C)C)cc1OCC` [diethofencarb], the pest or weed control at 0.5 ppm was 0%.

`N#Cc1sc2c(=O)c3ccccc3c(=O)c=2sc1C#N` [dithianon]: the pest or weed control at 0.5 ppm was found to be 15%.

As for `O=[N+]([O-])c1cc(C(F)(F)F)c(Cl)c([N+](=O)[O-])c1Nc1ncc(C(F)(F)F)cc1Cl` [fluazinam], the pest or weed control at 0.5 ppm was 47%.

Regarding `O=C1OCc2ccccc21` [phthalide], the pest or weed control at 0.5 ppm amounted to 10%.

For the compound `CCCN(CC)CC1COC2(CCC(C(C)(C)C)CC2)O1` (stereo not shown) [spiroxamine], the pest or weed control at 0.5 ppm worked out at 10%.

Staying with this assay, now noted: Botrytis cinerea, foliar, 96 h; partner fungicide alone 5.0 ppm, dimethyl sulfoxide solution; cucumber leaf disk, 15° C., four days; read-out: preventive value (%).
As for `N#Cc1c(Cl)c(Cl)c(Cl)c(C#N)c1Cl` [chlorothalonil], the pest or weed control at 5 ppm was determined as 45%.

As to `O=C(Cc1ccccc1)N/C(=N\OCC1CC1)c1c(C(F)(F)F)ccc(F)c1F` [cyflufenamid], the pest or weed control at 5 ppm stood at 15%.

`CCOc1ccc(NC(=O)OC(C)C)cc1OCC` [diethofencarb]: the pest or weed control at 5 ppm amounted to 0%.

As for `N#Cc1sc2c(=O)c3ccccc3c(=O)c=2sc1C#N` [dithianon], the pest or weed control at 5 ppm was determined as 20%.

With `O=[N+]([O-])c1cc(C(F)(F)F)c(Cl)c([N+](=O)[O-])c1Nc1ncc(C(F)(F)F)cc1Cl` [fluazinam], the pest or weed control at 5 ppm was found to be 52%.

Turning to `O=C1OCc2ccccc21` [phthalide], the pest or weed control at 5 ppm is 15%.

With `CCCN(CC)CC1COC2(CCC(C(C)(C)C)CC2)O1` (stereo not shown) [spiroxamine], the pest or weed control at 5 ppm is 15%.

The same assay, now with this note: partner fungicide alone 0.5 ppm, dimethyl sulfoxide solution; cucumber leaf disk, 15° C., four days.
Regarding `CCO[PH](=O)O` [fosetyl-Al], the “preventive value (%)” value was 15%.

For `COc1cc(C)c(C(=O)c2c(OC)ccc(Br)c2C)c(OC)c1OC` [metrafenon], the “preventive value (%)” value was 10%.

In the case of `Cc1nn(C)c(F)c1C(=O)Nc1ccccc1C(C)CC(C)C` (stereo not shown) [penflufen], the “preventive value (%)” value amounted to 10%.

For the compound `Cn1cc(C(=O)Nc2ccccc2C2CC2C2CC2)c(C(F)F)n1` (stereo not shown) [sedaxane], the “preventive value (%)” value stood at 20%.

As to `CC(=O)Oc1c(C)c(C)nc2c(F)cc(C(C)(C)C)cc12` [tebufloquin], the “preventive value (%)” value is reported as 10%.

The assay is the same for the next values; noted with them: partner fungicide alone 5.0 ppm, dimethyl sulfoxide solution; cucumber leaf disk, 15° C., four days.
On to `CCO[PH](=O)O` [fosetyl-Al], for which the “preventive value (%)” value stood at 20%.

In the case of `COc1cc(C)c(C(=O)c2c(OC)ccc(Br)c2C)c(OC)c1OC` [metrafenon], the “preventive value (%)” value was found to be 15%.

Turning to `Cc1nn(C)c(F)c1C(=O)Nc1ccccc1C(C)CC(C)C` (stereo not shown) [penflufen], the “preventive value (%)” value is 15%.

For the compound `Cn1cc(C(=O)Nc2ccccc2C2CC2C2CC2)c(C(F)F)n1` (stereo not shown) [sedaxane], the “preventive value (%)” value was 40%.

With `CC(=O)Oc1c(C)c(C)nc2c(F)cc(C(C)(C)C)cc12` [tebufloquin], the “preventive value (%)” value was 15%.
